Test results from PubChem BioAssay AID330 (DTP/NCI, 2004).
Inconclusive results and toxic doses are left out. How the source made its calls: active means survival T/C of 150% or more; inactive means T/C below 125% in these data.

System: P388 leukemia ip, CD2F1 mice, survival T/C
Test: NCI In Vivo Anticancer Drug Screen. Data for tumor model P388 Leukemia (intraperitoneal) in CD2F1 (CDF1) mice
Conditions: endpoint: median survival time, higher = longer survival
Procedure, shortened: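 Mice carrying the transplanted tumor received test compound or vehicle. Survival was recorded in each group, and the value is the treated-group measurement divided by that of the vehicle-treated control group.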

[1] = dose: 50.0 mg/kg/injection, schedule: Q01DX009 (ip), vehicle: Klucel (hydroxypropylcellulose) (HPC)
[2] = dose: 100.0 mg/kg/injection, schedule: Q01DX009 (ip), vehicle: Klucel (hydroxypropylcellulose) (HPC)
[3] = dose: 200.0 mg/kg/injection, schedule: Q01DX009 (ip), vehicle: Klucel (hydroxypropylcellulose) (HPC)
[4] = dose: 50.0 mg/kg/injection, schedule: Q01DX005 (ip), vehicle: Klucel (hydroxypropylcellulose) (HPC)
[5] = dose: 100.0 mg/kg/injection, schedule: Q01DX005 (ip), vehicle: Klucel (hydroxypropylcellulose) (HPC)
[6] = dose: 200.0 mg/kg/injection, schedule: Q01DX005 (ip), vehicle: Klucel (hydroxypropylcellulose) (HPC)
[7] = dose: 100.0 mg/kg/injection, schedule: Q04DX002 (ip), vehicle: saline with Tween-80

Measured: T/C

Clc1ccc(C(c2ccccc2Cl)C(Cl)Cl)cc1 (stereo unspecified)
inactive: dose: 8.0 mg/kg/injection, schedule: Q03HX024 (ip), vehicle: saline 105 % of control | dose: 16.0 mg/kg/injection, schedule: Q03HX008 (ip), vehicle: saline 100 % of control | dose: 16.0 mg/kg/injection, schedule: Q03HX016 (ip), vehicle: saline 100 % of control | dose: 16.0 mg/kg/injection, schedule: Q03HX024 (ip), vehicle: saline 100 % of control | dose: 32.0 mg/kg/injection, schedule: Q03HX008 (ip), vehicle: saline 100 % of control | dose: 32.0 mg/kg/injection, schedule: Q03HX016 (ip), vehicle: saline 100 % of control | dose: 32.0 mg/kg/injection, schedule: Q03HX024 (ip), vehicle: saline 100 % of control | dose: 64.0 mg/kg/injection, schedule: Q01DX009 (ip), vehicle: saline 90 % of control | dose: 64.0 mg/kg/injection, schedule: Q03HX008 (ip), vehicle: saline 100 % of control | dose: 64.0 mg/kg/injection, schedule: Q03HX016 (ip), vehicle: saline 115 % of control | dose: 64.0 mg/kg/injection, schedule: Q03HX024 (ip), vehicle: saline 110 % of control | dose: 64.0 mg/kg/injection, schedule: Q04DX003 (ip), vehicle: saline 104 % of control | dose: 128.0 mg/kg/injection, schedule: Q01DX001 (ip), vehicle: saline 109 % of control | dose: 128.0 mg/kg/injection, schedule: Q01DX009 (ip), vehicle: saline 90 % of control | dose: 128.0 mg/kg/injection, schedule: Q03HX008 (ip), vehicle: saline 100 % of control | dose: 128.0 mg/kg/injection, schedule: Q03HX016 (ip), vehicle: saline 110 % of control | dose: 128.0 mg/kg/injection, schedule: Q03HX024 (ip), vehicle: saline 100 % of control | dose: 128.0 mg/kg/injection, schedule: Q04DX003 (ip), vehicle: saline 100 % of control | dose: 128.0 mg/kg/injection, schedule: Q08DX002 (ip), vehicle: saline 100 % of control | dose: 256.0 mg/kg/injection, schedule: Q01DX001 (ip), vehicle: saline 100 % of control | dose: 256.0 mg/kg/injection, schedule: Q01DX001 (oral), vehicle: saline 104 % of control | dose: 256.0 mg/kg/injection, schedule: Q01DX009 (ip), vehicle: saline 95 % of control | dose: 256.0 mg/kg/injection, schedule: Q01DX009 (oral), vehicle: saline 104 % of control | dose: 256.0 mg/kg/injection, schedule: Q04DX003 (ip), vehicle: saline 100 % of control | dose: 256.0 mg/kg/injection, schedule: Q04DX003 (oral), vehicle: saline 100 % of control | dose: 256.0 mg/kg/injection, schedule: Q08DX002 (ip), vehicle: saline 90 % of control | dose: 512.0 mg/kg/injection, schedule: Q01DX001 (ip), vehicle: saline 109 % of control | dose: 512.0 mg/kg/injection, schedule: Q01DX001 (oral), vehicle: saline 100 % of control | dose: 512.0 mg/kg/injection, schedule: Q01DX009 (ip), vehicle: saline 86 % of control | dose: 512.0 mg/kg/injection, schedule: Q01DX009 (oral), vehicle: saline 109 % of control | dose: 512.0 mg/kg/injection, schedule: Q04DX003 (ip), vehicle: saline 90 % of control | dose: 512.0 mg/kg/injection, schedule: Q04DX003 (oral), vehicle: saline 100 % of control | dose: 512.0 mg/kg/injection, schedule: Q08DX002 (ip), vehicle: saline 100 % of control | dose: 1024.0 mg/kg/injection, schedule: Q01DX001 (ip), vehicle: saline 100 % of control | dose: 1024.0 mg/kg/injection, schedule: Q01DX001 (oral), vehicle: saline 100 % of control | dose: 1024.0 mg/kg/injection, schedule: Q01DX009 (oral), vehicle: saline 100 % of control | dose: 1024.0 mg/kg/injection, schedule: Q04DX003 (ip), vehicle: saline 90 % of control | dose: 1024.0 mg/kg/injection, schedule: Q04DX003 (oral), vehicle: saline 100 % of control | dose: 1024.0 mg/kg/injection, schedule: Q08DX002 (ip), vehicle: saline 104 % of control | dose: 2048.0 mg/kg/injection, schedule: Q01DX001 (oral), vehicle: saline 109 % of control | dose: 2048.0 mg/kg/injection, schedule: Q01DX009 (oral), vehicle: saline 100 % of control | dose: 2048.0 mg/kg/injection, schedule: Q04DX003 (oral), vehicle: saline 100 % of control

CCOc1ccc(N2C(=O)C(=O)C(C(C)=O)C2=O)cc1 (stereo unspecified)
inactive: [1] 108 % of control | [2] 106 % of control | [3] 100 % of control

C/C(=C\c1ccc(Cl)cc1)C(=O)N1CCN(c2ccccc2)CC1
inactive: [4] 105 % of control | [5] 91 % of control | [6] 96 % of control

COc1cc2c(cc1OC)C(N)CCC2 (stereo unspecified)
inactive: dose: 6.25 mg/kg/injection, schedule: Q01DX009 (ip), vehicle: water 104 % of control | dose: 12.5 mg/kg/injection, schedule: Q01DX009 (ip), vehicle: water 96 % of control | dose: 25.0 mg/kg/injection, schedule: Q01DX009 (ip), vehicle: water 99 % of control | dose: 50.0 mg/kg/injection, schedule: Q01DX009 (ip), vehicle: water 96 % of control | dose: 100.0 mg/kg/injection, schedule: Q01DX009 (ip), vehicle: water 101 % of control

CC1=C(Cl)C(=N\S(=O)(=O)c2ccccc2)/c2ccccc2/C1=N/S(=O)(=O)c1ccccc1
inactive: dose: 100.0 mg/kg/injection, schedule: Q01DX001 (ip), vehicle: saline with Tween-80 95 % of control | dose: 200.0 mg/kg/injection, schedule: Q01DX001 (ip), vehicle: saline with Tween-80 95 % of control

O=C(Nc1ccc2ccccc2c1)C1C(=O)C(=O)N(c2ccc3ccccc3c2)C1=O (stereo unspecified)
inactive: [1] 106 % of control | [2] 106 % of control | [3] 108 % of control

CCCCC(/C=N/NC(N)=S)C(=O)OCC (stereo unspecified)
inactive: dose: 60.0 mg/kg/injection, schedule: Q01DX005 (ip), vehicle: Klucel (hydroxypropylcellulose) (HPC) 102 % of control | dose: 120.0 mg/kg/injection, schedule: Q01DX005 (ip), vehicle: Klucel (hydroxypropylcellulose) (HPC) 100 % of control | dose: 240.0 mg/kg/injection, schedule: Q01DX005 (ip), vehicle: Klucel (hydroxypropylcellulose) (HPC) 100 % of control

CC(C)(C)c1ccc(OS(=O)(=O)c2cccc([N+](=O)[O-])c2)cc1
inactive: dose: 100.0 mg/kg/injection, schedule: Q01DX009 (ip), vehicle: saline with Tween-80 95 % of control | dose: 200.0 mg/kg/injection, schedule: Q01DX009 (ip), vehicle: saline with Tween-80 100 % of control | dose: 400.0 mg/kg/injection, schedule: Q01DX009 (ip), vehicle: saline with Tween-80 100 % of control

N#CCN=NNc1ccc([N+](=O)[O-])cc1
inactive: dose: 100.0 mg/kg/injection, schedule: Q01DX001 (ip), vehicle: Klucel (hydroxypropylcellulose) (HPC) 115 % of control | dose: 200.0 mg/kg/injection, schedule: Q01DX001 (ip), vehicle: Klucel (hydroxypropylcellulose) (HPC) 107 % of control | dose: 400.0 mg/kg/injection, schedule: Q01DX001 (ip), vehicle: Klucel (hydroxypropylcellulose) (HPC) 116 % of control

CC1=C/C(=N\SC(c2ccccc2)(c2ccccc2)c2ccccc2)CCC1
inactive: [7] 94 % of control | dose: 200.0 mg/kg/injection, schedule: Q04DX002 (ip), vehicle: saline with Tween-80 95 % of control

CCCCOc1ccc(-n2c(=O)[nH]c3ccccc3c2=O)cc1
inactive: [4] 96 % of control | [5] 100 % of control | [6] 96 % of control

CSc1snc2c1c(=O)n(C)c(=O)n2C
inactive: dose: 25.0 mg/kg/injection, schedule: Q04DX002 (ip), vehicle: saline with Tween-80 98 % of control | dose: 50.0 mg/kg/injection, schedule: Q04DX002 (ip), vehicle: saline with Tween-80 101 % of control | [7] 99 % of control

CC(C)(C)c1cc(Cc2ccccc2)c(O)c(C(C)(C)C)c1
inactive: dose: 50.0 mg/kg/injection, schedule: Q01DX005 (ip), vehicle: distilled water + alcohol 100 % of control | dose: 100.0 mg/kg/injection, schedule: Q01DX005 (ip), vehicle: distilled water + alcohol 103 % of control | dose: 200.0 mg/kg/injection, schedule: Q01DX005 (ip), vehicle: distilled water + alcohol 111 % of control

O=[N+]([O-])c1cc(S(=O)(=O)O)cc([N+](=O)[O-])c1Cl
inactive: dose: 25.0 mg/kg/injection, schedule: Q01DX009 (ip), vehicle: Klucel (hydroxypropylcellulose) (HPC) 116 % of control | [1] 114 % of control | [2] 119 % of control
